The subject of data set [1] is Staphylococcus aureus ATCC29213. The data set can be described thus: MIC/MBC, broth microdilution. Particulars: Table 1; broth microdilution CLSI M100-S25, MH broth, 37°C, 18 h, three independent repeats. The data set is classed as cell-based. (In general: Dilution methods test growth across graded concentrations, often in twofold steps.)
The subject of data set [2] is Escherichia coli ATCC25922. Particulars: Table 1; broth microdilution CLSI M100-S25, MH broth, 37°C, 18 h, three independent repeats.
Another data set concerns sheep red blood cells. The note with it: sheep red blood cells in PBS, 37°C, 1 h, OD576, relative to melittin, mean ± SD, three repeats; for Hemolytic rate, 50 μg/mL: 50 μg/mL peptide; for Hemolytic rate, 100 μg/mL: 100 μg/mL peptide; for Hemolytic rate, 150 μg/mL: 150 μg/mL peptide; for Hemolytic rate, 300 μg/mL: 300 μg/mL peptide.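 On all read-outs here: hemolysis expressed in % from supernatant absorbance, with PBS-treated cells as 0% baseline and melittin as 100%, peptide mixed 1:1 with an 8% v/v erythrocyte suspension.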
Another data set has as its system MAC-T cells. The note with it: peptide 150 μg/mL, 24 h, WST-1, mean ± SD, three repeats. A general note: Formazan colour is commonly taken as a measure of viable cells.
The test system of another data set is RAW264.7 cells. Particulars: peptide 150 μg/mL, 24 h, WST-1, mean ± SD, three repeats.

Structures are written as SMILES. Converted amounts (≈) assume the structure as drawn. Where a SMILES comes first, the peptide text is derived from it.

With `CC[C@H](C)[C@H](NC(=O)[C@H](CCCNC(=N)N)NC(=O)[C@H](CCCNC(=N)N)NC(=O)[C@H](Cc1ccccc1)NC(=O)[C@H](CC(C)C)NC(=O)[C@H](CCCNC(=N)N)NC(=O)[C@H](N)CCCNC(=N)N)C(=O)N[C@@H](CC(C)C)C(=O)N[C@@H](CCCNC(=N)N)C(=O)N[C@@H](Cc1c[nH]c2ccccc12)C(=O)N[C@@H](CC(C)C)C(N)=O` [RW-BP100-1D] (HELM PEPTIDE1{[dR].R.L.F.R.R.I.L.R.W.L.[am]}$$$$V2.0), in data set [1], the “MIC Staphylococcus aureus ATCC29213” value amounted to 25 µg/mL (≈ 15.8 µM). Besides, the “MIC Escherichia coli ATCC25922” value in data set [2] came out at 12 µg/mL (≈ 7.58 µM). In the data set with sheep red blood cells, the “Hemolytic rate, 50 μg/mL” value was determined as 4.61 ± 0.47%; the “Hemolytic rate, 100 μg/mL” value turned out to be 5.49 ± 0.23%; the “Hemolytic rate, 150 μg/mL” value came out at 39.81 ± 0.20%; the “Hemolytic rate, 300 μg/mL” value amounted to 52.88 ± 3.06%. Also, in the data set with MAC-T cells, the “Cell survival rate, MAC-T” value is 52.71 ± 5.68%. Besides, the “Cell survival rate, RAW264.7” value with RAW264.7 cells is 9.55 ± 2.45%.

For the compound `CC[C@H](C)[C@H](NC(=O)[C@H](CCCNC(=N)N)NC(=O)[C@H](CCCNC(=N)N)NC(=O)[C@H](Cc1ccccc1)NC(=O)[C@H](CC(C)C)NC(=O)[C@@H](CCCNC(=N)N)NC(=O)[C@@H](N)CCCNC(=N)N)C(=O)N[C@@H](CC(C)C)C(=O)N[C@@H](CCCNC(=N)N)C(=O)N[C@@H](Cc1c[nH]c2ccccc12)C(=O)N[C@@H](CC(C)C)C(N)=O` [RW-BP100-2D] (HELM PEPTIDE1{R.[dR].L.F.R.R.I.L.R.W.L.[am]}$$$$V2.0), in data set [1], the “MIC Staphylococcus aureus ATCC29213” value worked out at 25 µg/mL (≈ 15.8 µM). The “MIC Escherichia coli ATCC25922” value in data set [2] was 12 µg/mL (≈ 7.58 µM). For the same compound, in the data set on sheep red blood cells, the “Hemolytic rate, 50 μg/mL” value is on record as 4.83 ± 1.08%; the “Hemolytic rate, 100 μg/mL” value is 5.99 ± 0.79%; the “Hemolytic rate, 150 μg/mL” value was found to be 39.16 ± 1.75%; the “Hemolytic rate, 300 μg/mL” value is listed as 62.12 ± 6.27%. Besides, the “Cell survival rate, MAC-T” value with MAC-T cells came to 63.07 ± 3.23%. Further, the “Cell survival rate, RAW264.7” value with RAW264.7 cells turned out to be 6.83 ± 5.69%.

Regarding `CC[C@H](C)[C@H](NC(=O)[C@H](CCCNC(=N)N)NC(=O)[C@H](CCCNC(=N)N)NC(=O)[C@H](Cc1ccccc1)NC(=O)[C@@H](CC(C)C)NC(=O)[C@H](CCCNC(=N)N)NC(=O)[C@@H](N)CCCNC(=N)N)C(=O)N[C@@H](CC(C)C)C(=O)N[C@@H](CCCNC(=N)N)C(=O)N[C@@H](Cc1c[nH]c2ccccc12)C(=O)N[C@@H](CC(C)C)C(N)=O` [RW-BP100-3D] (HELM PEPTIDE1{R.R.[dL].F.R.R.I.L.R.W.L.[am]}$$$$V2.0), the “MIC Staphylococcus aureus ATCC29213” value in data set [1] came to 25 µg/mL (≈ 15.8 µM). For the same compound, the “MIC Escherichia coli ATCC25922” value in data set [2] was found to be 50 µg/mL (≈ 31.6 µM). Moreover, in the data set on sheep red blood cells, the “Hemolytic rate, 50 μg/mL” value came out at 3.49 ± 0.76%; the “Hemolytic rate, 100 μg/mL” value amounted to 4.04 ± 0.20%; the “Hemolytic rate, 150 μg/mL” value is reported as 38.13 ± 3.12%; the “Hemolytic rate, 300 μg/mL” value turned out to be 55.73 ± 5.27%. Moreover, the “Cell survival rate, MAC-T” value with MAC-T cells amounted to 50.63 ± 2.36%. Further, in the data set with RAW264.7 cells, the “Cell survival rate, RAW264.7” value came to 7.69 ± 7.89%.

Take `CC[C@@H](C)[C@@H](NC(=O)[C@H](CCCNC(=N)N)NC(=O)[C@H](CCCNC(=N)N)NC(=O)[C@H](Cc1ccccc1)NC(=O)[C@H](CC(C)C)NC(=O)[C@H](CCCNC(=N)N)NC(=O)[C@@H](N)CCCNC(=N)N)C(=O)N[C@@H](CC(C)C)C(=O)N[C@@H](CCCNC(=N)N)C(=O)N[C@@H](Cc1c[nH]c2ccccc12)C(=O)N[C@@H](CC(C)C)C(N)=O` [RW-BP100-7D] (HELM PEPTIDE1{R.R.L.F.R.R.[dI].L.R.W.L.[am]}$$$$V2.0): the “MIC Staphylococcus aureus ATCC29213” value in data set [1] is 25 µg/mL (≈ 15.8 µM). Also, in data set [2], the “MIC Escherichia coli ATCC25922” value was 25 µg/mL (≈ 15.8 µM). Further, in the data set with sheep red blood cells, the “Hemolytic rate, 50 μg/mL” value is listed as 0.53 ± 1.12%; the “Hemolytic rate, 100 μg/mL” value is 1.11 ± 0.19%; the “Hemolytic rate, 150 μg/mL” value turned out to be 16.17 ± 3.36%; the “Hemolytic rate, 300 μg/mL” value is 45.65 ± 5.13%. In addition, the “Cell survival rate, MAC-T” value in the data set with MAC-T cells is given as 96.41 ± 3.75%. Besides, in the data set on RAW264.7 cells, the “Cell survival rate, RAW264.7” value worked out at 93.74 ± 1.25%.

(Values after article PMC8822125, “RW-BP100-4D, a Promising Antimicrobial Candidate With Broad-Spectrum Bactericidal Activity” (Frontiers in Microbiology, 2022).)
